Converted amounts (≈) assume the structure as drawn. Like-named read-outs stand apart in the source and are kept apart here.
B1: EcXA172: antisense clone insert to E. coli b2345 (nucleic acid, listed as Escherichia coli)
antisense: AAAACTCACCTTTTTTGTTGTTATCCCTCAATTACCACAAGTAAAAGGAGATAAACCGACAATGACCTAGACGTAATTATGTAAAAATACTGATGTTCGTCACTGACTATTTCCGATATTCAGCTGTTGAAAAATCAAAAAACTGGAAAAATAATTTTAAATATCAT
B2: EcXA134: antisense clone insert to E. coli sspA (nucleic acid, listed as Escherichia coli)
antisense: TGTTCGATCTCGAAACTTACACCTTTCTCAGCCAGCACAATGCGGACCTGATGGCTATAGATGTCAGTAGGACCGGAAAACAGCGTCATTACCCGAACGTTTGTTGGC
B3: EcXA161: antisense clone insert to E. coli sbcD (nucleic acid, listed as Escherichia coli)
antisense: GAAACTCAGTGGAATGGGGGAGCCGCAATAGCGAACATGTTCCATGCCGCCAATAATCTGTGCGCGGTGAATATGCCCGAGCGCGATGTAGTCGGCTGGTGGAAAGTTTTGTGCCGGAAACGCGTCCAGCGTGCCAATATAAATGTCACGCACGGCGTCACTTTTACTGGCCCCCACGGTCGTTAAATGTCCCGTGGCGATGATGGGCAGAGGCTGATCGCCGCGCAGTTTGCAGGCATCGGCATAGTGT

Key:
[1] = tested on: E. coli transformed with IPTG-inducible antisense clones (AS-rplW, AS-rplLrplJ, AS-elaD, AS-visC, AS-yohH, AS-atpB/E); assay: Cell-based assay: antibiotic sensitivity of E. coli antisense clones pretreated with IPTG (Example 9)
Excerpt: The effectiveness of the above cell-based assay was validated using constructs expressing antisense RNA to the proliferation required E. coli genes rplL, rplJ, and rplW encoding ribosomal proteins L7/L12, L10 and L23 respectively. These proteins are part of the protein synthesis apparatus of the cell and as such are required for proliferation. These constructs were used to test the effect of antisense expression on cell sensitivity to antibiotics known to bind to the ribosome and thereby inhibit protein synthesis. Constructs expressing antisense RNA to several other genes (elaD, visC, yohH, and atpE/B), the products of which are not involved in protein synthesis were used for comparison.
First, pLEX5BA (Krause et al., J. Mol. Biol. 274: 365 (1997), the disclosure of which is incorporated herein by reference in its entirety) expression vectors containing antisense constructs to either rplW or to elaD were introduced into separate E. coli cell populations. Vector introduction is a technique well known to those of ordinary skill in the art. The expression vectors of this example contain IPTG inducible promoters that drive the expression of the antisense RNA in the presence of the inducer. However, those skilled in the art will appreciate that other inducible promoters may also be used. Suitable expression vectors are also well known in the art. The E. coli antisense clones to genes encoding ribosomal proteins L7/L12, L10 and L23 were used to test the effect of antisense expression on cell sensitivity to the antibiotics known to bind to these proteins. […]
The cell populations were exposed to a range of IPTG concentrations in liquid medium to obtain the growth inhibitory dose curve for each clone (FIG. 1). First, seed cultures were grown to a particular turbidity that is measured by the optical density (OD) of the growth solution. […] The cells were grown for up to 15 hours and the extent of growth was determined by measuring the optical density of the cultures at 600 nm. […]

[2] = tested on: Bacterial cells expressing antisense nucleic acid complementary to rplL and rplJ (50S ribosomal subunit proteins); assay: microbe, parasite or virus in culture; type: cell-based, E. coli; conditions: for IC50: Escherichia coli; for Fold Increase in Sensitivity: IC50 −IPTG versus +IPTG (400 μM); for Sensitivity Increased?: significant decrease in IC50 in the presence of inducer IPTG
Method: Two-fold dilution series of antibiotics with a known mechanism of action are generated in the culture media selected for further assay development that has been supplemented with the antibiotic used to maintain the construct. A panel of test antibiotics known to act on different pathways is tested side by side with three to four wells being used to evaluate the effect of a test antibiotic on cell growth at each concentration. Equal volumes of test antibiotic and cells are added to the wells of a 384 well microtiter plate and mixed. Cells are prepared as described above using the media selected for assay development supplemented with the antibiotic required to maintain the antisense construct and are diluted 1:100 in identical media immediately prior to addition to the microtiter plate wells. For a control, cells are also added to several wells that contain the solvent used to dissolve the antibiotics but no antibiotic. Cell growth is monitored continuously by incubation at 37° C. in a microtiter plate reader monitoring the OD600 of the wells over an 18-hour period. […] A plot of percent inhibition against log[antibiotic concentration] allows extrapolation of an IC50 value for each antibiotic.
The culture media selected for use in the assay is supplemented with inducer at concentrations shown to inhibit cell growth by 50% and 80% as described above and the antibiotic used to maintain the construct. Two fold dilution series of the panel of test antibiotics used above are generated in each of these media. Several antibiotics are tested side by side with three to four wells being used to evaluate the effects of an antibiotic on cell growth at each concentration, in each media. Equal volumes of test antibiotic and cells are added to the wells of a 384 well microtiter plate and mixed. Cells are prepared as described above using the media selected for use in the assay supplemented with the antibiotic required to maintain the antisense construct. […] Immediately prior to addition to the microtiter plate wells, the cultures are adjusted to an appropriate OD600 (typically 0.002) by dilution into warm (37° C.) sterile media supplemented with identical concentrations of the inducer and antibiotic used to maintain the antisense construct. For a control, cells are also added to several wells that contain solvent used to dissolve test antibiotics but which contain no antibiotic. Cell growth is monitored continuously by incubation at 37° C. in a microtiter plate reader monitoring the OD600 of the wells over an 18-hour period. […] A plot of percent inhibition against log[antibiotic concentration] allows extrapolation of an IC50 value for each antibiotic.
Antibiotics of various chemical classes and modes of action were purchased from Sigma Chemicals (St. Louis, Mo.). Stock solutions were prepared by dissolving each antibiotic in an appropriate aqueous solution based on information provided by the manufacturer. The final working solution of each antibiotic contained no more than 0.2% (w/v) of any organic solvent. To determine their potency against a bacterial strain engineered for expression of an antisense complementary to a proliferation-required gene encoding 50S ribosomal protein, each antibiotic was serially diluted two or three fold in growth medium supplemented with the appropriate antibiotic for maintenance of the anti-sense construct. At least ten dilutions were prepared for each antibiotic. 25 μL aliquots of each dilution were transferred to discrete wells of a 384-well microplate (the assay plate) using a multi-channel pipette. Quadruplicate wells were used for each dilution of an antibiotic under each treatment condition (plus and minus inducer). Each assay plate contained twenty wells for cell growth controls (growth media replacing antibiotic), ten wells for each treatment (plus and minus inducer, in this example IPTG).

Salmonella typhimurium = assay: Growth inhibition by induced E. coli antisense RNA in Salmonella typhimurium; type: cell-based; parameters: key: +: a positive in Table V below means that at least 10 fold more cells were required to observe a colony on the induced plate than on the non-induced plate; −: If there was no effect of antisense RNA expression in a microorganism, the clone is minus in Table V below; conditions: antisense RNA expression induced with IPTG, serial dilution plating
Method: (§1) To study the effects of transcriptional induction in liquid medium, growth curves were carried out by back diluting cultures 1:200 into fresh media with or without 1 mM IPTG and measuring the OD450 every 30 minutes (min). To study the effects of transcriptional induction on solid medium, 10^2, 10^3, 10^4, 10^5, 10^6, 10^7 and 10^8 fold dilutions of overnight cultures were prepared. Aliquots of from 0.5 to 3 μl of these dilutions were spotted on selective agar plates with or without 1 mM IPTG. After overnight incubation, the plates were compared to assess the sensitivity of the clones to IPTG.
(§2) Molecule No. EcXA190, encoding a portion of the b3052 gene of Escherichia coli, was either transformed directly into Enterobacter cloacae, Salmonella typhimurium and/or Klebsiella pneumoniae or subcloned into an expression vector functional in these species and the subclones transformed into these organisms. Suitable expression vectors are well known in the art. […] After growth in liquid culture, cells were plated at various serial dilutions and a score determined by calculating the log difference in growth for INDUCED vs. UNINDUCED antisense RNA expression as determined by the maximum 10 fold dilution at which a colony was observed. […]

Klebsiella pneumoniae = assay: Growth inhibition by induced E. coli antisense RNA in Klebsiella pneumoniae; type: cell-based; parameters: key: +: a positive in Table V below means that at least 10 fold more cells were required to observe a colony on the induced plate than on the non-induced plate; −: If there was no effect of antisense RNA expression in a microorganism, the clone is minus in Table V below; conditions: antisense RNA expression induced with IPTG, serial dilution plating
In short: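 An E. coli antisense fragment (b3052 portion), or other E. coli-inhibitory antisense clones, was expressed in each species on IPTG induction (1 mM). Serial 10-fold dilutions were spotted on selective agar with or without IPTG overnight. The score is the log difference in maximal colony-forming dilution, induced vs uninduced (0 = no effect; positive = at least 10-fold).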

Enterobacter cloacae = assay: Growth inhibition by induced E. coli antisense RNA in Enterobacter cloacae; type: cell-based; parameters: key: +: a positive in Table V below means that at least 10 fold more cells were required to observe a colony on the induced plate than on the non-induced plate; −: If there was no effect of antisense RNA expression in a microorganism, the clone is minus in Table V below; conditions: antisense RNA expression induced with IPTG, serial dilution plating
Method: as §1, §2

E. coli = assay: Inhibition of E. coli proliferation after IPTG induction of antisense clones (growth curves, dilution spotting, score); type: cell-based, Escherichia coli; conditions: IPTG induction (1 mM)
Method: as §1
Of the numerous clones tested, some clones were identified as containing a sequence that inhibited E. coli growth after IPTG induction. […]
as §2, with “organisms.” for “organisms. Suitable expression vectors are well known in the art.”

Molecule	IC50 ([2]; read-out: IC50 (+IPTG)) [µg/mL]	IC50 ([2]; read-out: IC50 (−IPTG)) [µg/mL]	Fold Increase in Sensitivity [2]	Sensitivity Increased? [2]	effect of antisense expression on E. coli growth/proliferation (E. coli)	also measured
CC[C@H]1OC(=O)[C@H](C)[C@@H](O[C@H]2C[C@@](C)(OC)[C@@H](O)[C@H](C)O2)[C@H](C)[C@@H](O[C@@H]2O[C@H](C)C[C@H](N(C)C)[C@H]2O)[C@](C)(O)C[C@@H](C)C(=O)[C@H](C)[C@@H](O)[C@]1(C)O [Erythromycin]	0.187 (≈ 0.255 µM)	7.47 (≈ 10.2 µM)	40	Yes		sensitivity to antibiotic ([1]; initial experiments, clones with antisense to non-protein synthesis genes elaD, atpB/E and visC): do not; sensitivity to antibiotic ([1]; initial experiments, clones with antisense to protein synthesis genes (L7/L12 & L10, L7/L12 alone, L22, L18, rRNA, Elongation Factor G)): increased sensitivity
CCn1cc(C(=O)O)c(=O)c2ccc(C)nc21 [Nalidixic acid]	6.03 (≈ 25.9 µM)	6.97 (≈ 30 µM)	1	No		sensitivity to antibiotic ([1]; cells/clone expressing antisense to rplL and rplJ (L7/L12, L10), IPTG induced): does not show increased sensitivity
B1						Sensitivity of S. typhimurium to antisense nucleic acid (growth inhibition, induced vs. uninduced) (Salmonella typhimurium): −; Sensitivity of K. pneumoniae to antisense nucleic acid (growth inhibition, induced vs. uninduced) (Klebsiella pneumoniae): −; Sensitivity of E. cloacae to antisense nucleic acid (growth inhibition, induced vs. uninduced) (Enterobacter cloacae): −
B2					reduction in cell growth	
B3					reduction in cell growth	

Source: patent US20020022718A1, “Genes identified as required for proliferation of E. coli” (priority 1999, published 2002)
